Test results taken from the supplement of paper PMC3974653.
Counter-ions that a name gives are not always drawn.

Test system: MTT (mouse pheochromocytoma)
Experiment: IC50 of cell viability (ATP content)
Conditions: (24 or 48 h)
In short: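 The IC50 was fitted with a four-parameter logistic equation to normalised CellTiter-Glo ATP luminescence from MTT mouse pheochromocytoma cells. These cells, in white 1536-well plates, had been treated for 24 or 48 hrs with library compounds at 8 final concentrations between 0.5 nM and 46 µM, and luminescence was read after 15 minutes. Positive-control wells served as 100% and DMSO wells as 0%.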

SMILES	IC50 of cell viability
COC1CC(O[C@H]2/C(C)=C/CC3CC(C[C@]4(CCC(C)C(C5CCCCC5)O4)O3)OC(=O)[C@H]3C=C(C)/C(=N/O)C4OC/C(=C\C=C\[C@@H]2C)[C@@]43O)OC(C)C1O (stereo not given in full) [SELAMECTIN]	> 46 µM
Oc1ccc([C@H]2CNCc3c2ccc(O)c3O)cc1O [SELANDOPAM HYDROCHLORIDE HYDRATE (ZELANDOPAM)]	> 46 µM
C[Se]CC[C@H](N)C(=O)O [SELENOMETHIONINE, L-]	> 46 µM
C[Se]CCC(N)C(=O)O (stereo not given) [SELENOMETHIONINE, SE-75]	> 46 µM
Cc1cc(C)c(/C=C2\C(=O)Nc3ccccc32)[nH]1 [SEMAXANIBUM]	> 46 µM
CC1CCC(NC(=O)N(CCCl)N=O)CC1 (stereo not given) [SEMUSTINE]	> 46 µM
CC1=C(C)C(=O)C(C(CCCCCC(=O)O)c2ccccc2)=C(C)C1=O (stereo not given) [SERATRODAST]	> 46 µM
FCOC(C(F)(F)F)C(F)(F)F [SEVOFLURANE]	> 46 µM
CC(C)CC(N(C)C)C1(c2ccc(Cl)cc2)CCC1.Cl (stereo not given) [SIBUTRAMINE HYDROCHLORIDE]	> 46 µM
CCNc1nc(Cl)nc(NCC)n1 [SIMAZINE]	> 46 µM
CC1=C(NNC(=O)C1)C2=CC=C(N\N=C(\C#N)C#N)C=C2 [SIMENDANUM]	> 46 µM
Nc1c[n+](N2CCOCC2)no1 [SIN-1 chloride]	> 46 µM
CSCC[C@H](NC(=O)[C@@H](Cc1ccc(O[S+](=O)([O-])O)cc1)NC(=O)[C@H](N)CC(=O)O)C(=O)NCC(=O)N[C@@H](Cc1c[nH]c2ccccc12)C(=O)N[C@H](CCSC)C(=O)N[C@H](CC(=O)O)C(=O)N[C@@H](Cc1ccccc1)C(N)=O [SINCALIDE]	> 46 µM
CC(C)(C)C(=O)Oc1ccc([S+](=O)([O-])Nc2ccccc2C(=O)NCC(=O)[O-])cc1.O.O.O.O.[Na+] [SIVELESTAT SODIUM HYDRATE]	> 46 µM
Cc1c[nH]c2ccccc12 [SKATOLUM]	> 46 µM
C=CCN1C[C@H](C)N([C@H](c2ccc(C(=O)N(CC)CC)cc2)c2cccc(OC)c2)C[C@H]1C [SNC 80]	> 46 µM
CCCC(=O)[O-] [SODIUM BUTYRATE]	> 46 µM
F[Si-2](F)(F)(F)(F)F [SODIUM HEXAFLUOROSILICATE]	> 46 µM
O=C(O)CCCc1ccccc1 [SODIUM PHENYLBUTYRATE]	> 46 µM
CCCCC(CC)CCC(CC(C)C)OS(=O)(=O)[O-] (stereo not given) [SODIUM TETRADECYL SULFATE]	> 46 µM
O=P(O)(O)OP(=O)(O)OP(=O)(O)O.[NaH] [SODIUM TRIPOLYPHOSPHATE]	> 46 µM
O=C(O[C@H]1CN2CCC1CC2)N1CCc2ccccc2[C@@H]1c1ccccc1 [SOLIFENACIN SUCCINATE]	> 46 µM
CC(N)C(=O)NCC(=O)NC1CSSCC(C(=O)O)NC(=O)C(CO)NC(=O)C(C(C)O)NC(=O)C(Cc2ccccc2)NC(=O)C(C(C)O)NC(=O)C(CCCCN)NC(=O)C(Cc2c[nH]c3ccccc23)NC(=O)C(Cc2ccccc2)NC(=O)C(Cc2ccccc2)NC(=O)C(CC(N)=O)NC(=O)C(CCCCN)NC1=O (stereo not given) [SOMATOSTATIN]	> 46 µM
CCCCCCCCCCCCCCCC(=O)OC[C@H](O)[C@H]1OC[C@@H](O)[C@@H]1O [SORBITAN MONOPALMITATE]	> 46 µM

SMILES	IC50 of cell viability
CCCCCCCCCCCC(=O)OCC(O)C1OCC(O)C1O (stereo not given) [SORBITANI LAURAS]	> 46 µM
OCC(O)C(O)C(O)C(O)CO (stereo not given) [SORBITOL]	> 46 µM
CC(C)NCC(O)c1ccc(N[S+](C)(=O)[O-])cc1 (stereo not given) [SOTALOL]	> 46 µM
CC(=O)N[C@@H](CC(=O)O)C(=O)N[C@@H](CCC(=O)O)C(=O)O [SPAGLUMIC ACID]	> 46 µM
CC1CN(c2c(F)c(N)c3c(=O)c(C(=O)O)cn(C4CC4)c3c2F)CC(C)N1 (stereo not given) [SPARFLOXACIN]	> 46 µM
O=C(CCCN1CCC2(CC1)C(=O)NCN2c1ccccc1)c1ccc(F)cc1 [SPIPERONE]	> 46 µM
O=C1NCN(c2ccccc2)C12CCN(CC1COc3ccccc3O1)CC2 (stereo not given) [SPIROXATRINE]	> 46 µM
CC(C)=CCC/C(C)=C/CC/C(C)=C/CC/C=C(\C)CC/C=C(\C)CCC=C(C)C [SQUALENE]	> 46 µM
CCCCCCCCCCCCCCCCCCO [STEARLY ALCOHOL]	> 46 µM
N#Cc1c(N(CC(=O)[O-])CC(=O)[O-])sc(C(=O)[O-])c1CC(=O)[O-].O.O.O.O.O.O.O.[Sr+2].[Sr+2] [STRONTIUM RANELATE]	> 46 µM
ClCc1ccccc1.O=C1CC2OCC=C3CN4CCC56c7ccccc7N1C5[C@H]2[C@H]3C[C@H]46 (stereo not given in full) [STRYCHNINE SULFATE]	> 46 µM
[H][C@]12C[C@@]3([H])C4=CCO[C@@H]5CC(=O)N6C([C@@]35[H])[C@]1(CC[N@@]2C4)C7=C6C=CC=C7 (stereo not given in full) [STRYCHNINE]	> 46 µM
C(=C\c1ccncc1)/c1ccccc1 [STYRYLPYRIDINIUM CHLORIDE]	> 46 µM
O=C(O)CCC(=O)O [SUCCINIC ACID]	> 46 µM
CC1(C)SC2C(NC(=O)C(c3ccccc3)S(=O)(=O)[O-])C(=O)N2C1C(=O)[O-] (stereo not given) [SULBENICILLIN DISODIUM]	> 46 µM
Cc1nc(N[S+](=O)([O-])c2ccc(N)cc2)nc(C)c1Br [SULFABROMOMETHAZINE SODIUM]	> 46 µM
NC(=O)NS(=O)(=O)c1ccc(N)cc1 [SULFACARBAMIDUM]	> 46 µM
COc1cc(N[S+](=O)([O-])c2ccc(N)cc2)nc(C)n1 [SULFAMETOMIDINE]	> 46 µM
CC(=O)Nc1ccc([S+](=O)([O-])Nc2ccc([N+](=O)[O-])cc2)cc1 [SULFANITRAN]	> 46 µM
N[S+](=O)([O-])c1ccc(NC(=O)CCC(=O)O)cc1 [SULFASUCCINAMIDUM]	> 46 µM
NC(=S)N[S+](=O)([O-])c1ccc(N)cc1 [SULFATOLAMIDE]	> 46 µM
O=C1OC(c2ccc(O)c([S+](=O)([O-])O)c2)(c2ccc(O)c([S+](=O)([O-])O)c2)c2c(Br)c(Br)c(Br)c(Br)c21 (stereo not given) [SULFOBROMOPHTHALEIN SODIUM]	> 46 µM
CCC(C)(S(=O)(=O)CC)S(=O)(=O)CC [SULFONETHYLMETHANE]	> 46 µM
CCS(=O)(=O)C(C)(C)S(=O)(=O)CC [SULFONMETHANE]	> 46 µM

SMILES	IC50 of cell viability
COc1cc([S+](C)[O-])ccc1-c1nc2ncccc2[nH]1 (stereo not given) [SULMAZOLE]	> 46 µM
CCCCCCCCNC(C)C(O)c1ccc(SC(C)C)cc1 (stereo not given) [SULOCTIDIL]	> 46 µM
CN[S+](=O)([O-])Cc1ccc2[nH]cc(CCN(C)C)c2c1 [SUMATRIPTAN]	> 46 µM
CCOCC(O)COc1ccc(NC(=O)CC[S+](C)C)cc1 (stereo not given) [SUPLATAST TOSILATE]	> 46 µM
Cc1ccc(C(=O)Nc2ccc(S(=O)(=O)O)c3cc(S(=O)(=O)O)cc(S(=O)(=O)O)c23)cc1NC(=O)c1cccc(NC(=O)Nc2cccc(C(=O)Nc3cc(C(=O)Nc4ccc(S(=O)(=O)O)c5cc(S(=O)(=O)O)cc(S(=O)(=O)O)c45)ccc3C)c2)c1 [SURAMIN]	> 46 µM
CCON=O [SWEET SPIRITS OF NITRE]	> 46 µM
CC(=O)NC(=O)c1ccccc1O [Salacetamida]	> 46 µM
O=C(O)c1cc(/N=N/c2ccc([S+](=O)([O-])Nc3ccccn3)cc2)ccc1O [Salicylazosulfapyridine]	> 46 µM
O=C(O)c1ccccc1O [Salicylic acid]	> 46 µM
OCc1cc(C(O)CNCCCCCCOCCCCc2ccccc2)ccc1O (stereo not given) [Salmeterol]	> 46 µM
CC(O)C(O)[C@H]1CNc2nc(N)nc(O)c2N1 (stereo not given in full) [Sapropterin]	> 46 µM
CC(C)(C)NC(=O)[C@@H]1C[C@@H]2CCCC[C@@H]2CN1C[C@@H](O)[C@H](Cc1ccccc1)NC(=O)[C@H](CC(N)=O)NC(=O)c1ccc2ccccc2n1 [Saquinavir Mesylate]	> 46 µM
N#C[C@@H]1C[C@@H]2C[C@@H]2N1C(=O)[C@@H](N)C12CC3CC(CC(O)(C3)C1)C2 [Saxagliptin]	> 46 µM
C[N+]1([O-])[C@@H]2CC(OC(=O)[C@@H](CO)c3ccccc3)C[C@H]1[C@H]1O[C@H]12 (stereo not given in full) [Scopolamin-N-oxide hydrobromide]	> 46 µM
Br.CN1[C@H]2C[C@H](OC(=O)[C@H](CO)c3ccccc3)C[C@H]1[C@H]1O[C@H]12.O.O.O [Scopolamine hydrobromide trihydrate]	> 46 µM
C#CCN(C)[C@@H](C)Cc1ccccc1 [Selegiline hydrochloride]	> 46 µM
Cn1cnc2c(F)c(Nc3ccc(Br)cc3Cl)c(C(=O)NOCCO)cc21 [Selumetinib]	> 46 µM
CCN(CC)CCNC(=O)c1ccc(N[S+](C)(=O)[O-])cc1.Cl.O [Sematilide monohydrochloride monohydrate]	> 46 µM
Clc1ccc([C@H](Cn2ccnc2)OCc2csc3c(Cl)cccc23)c(Cl)c1 [Sertaconazole nitrate]	> 46 µM
O=C1NCCN1CCN1CCC(c2cn(-c3ccc(F)cc3)c3ccc(Cl)cc23)CC1 [Sertindole]	> 46 µM
C=CCN.Cl.ClC[C@H]1CO1 [Sevelamer hydrochloride]	> 46 µM
CN/C(=N\c1ccc(C2=NNC(=O)CC2C)cc1)NC#N (stereo not given) [Siguazodan]	> 46 µM
